# Test results published in patent US9980943B2, “Methods of treating muscular dystrophy” (BOARD OF REGENTS OF THE NEVADA SYSTEM OF HIGHER EDUCATION, …, priority 2013, dated 2018).
# Like-named read-outs stand apart in the source and are kept apart here.
# Experiments:
# Assay type in all cases: cell-based, mouse
# [1] = test system: α7 integrin (LacZ reporter in α7βgal+/− myoblasts); assay: Myoblast α7+/LacZ integrin FDG assay (Burkin assay in myoblasts, 96-well); conditions: α7+/LacZ myoblasts, 96-well; for fold induction at 0.5 µM / fold induction at 1 µM / fold induction at 5 µM / fold induction at 10 µM / fold induction at 20 µM / fold induction at 40 µM: Mus musculus, Myoblast, 48 h, read-out: Burkin Assay in Myoblasts, signal relative to DMSO
# [2] = test system: α7 integrin (LacZ reporter in α7+/LacZ myotubes); assay: Myotube α7 integrin FDG assay (Burkin assay in myotubes, 96-well); conditions: myotubes; for fold induction at 0.5 µM / fold induction at 1 µM / fold induction at 5 µM / fold induction at 10 µM / fold induction at 20 µM / fold induction at 40 µM: Mus musculus, Myotube, read-out: Burkin Assay in Myotubes, α7 integrin LacZ reporter signal relative to DMSO
# [3] = test system: β-galactosidase in CMV-LacZ C2C12 myotubes; assay: CMV-LacZ secondary screen in C2C12 myotubes (β-Gal stabilizing assay); conditions: C2C12 CMV-LacZ myotubes, fold relative to DMSO; for fold induction at 5 µM / fold induction at 10 µM / fold induction at 20 µM / fold induction at 40 µM: Mus musculus
# Outline: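 β-gal stabilization was measured in C2C12 myoblasts or myotubes stably transfected with a CMV-driven LacZ construct, using the FDG β-gal assay. Compounds were tested in dose-response at 0.5, 1, 5, 10, 20 and 40 μM, with two replicates per point.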
SMILES,"Burkin Assay in Myoblasts, signal relative to DMSO ([1]; 0.5 uM)","Burkin Assay in Myoblasts, signal relative to DMSO ([1]; 1 uM)","Burkin Assay in Myoblasts, signal relative to DMSO ([1]; 5 uM)","Burkin Assay in Myoblasts, signal relative to DMSO ([1]; 10 uM)","Burkin Assay in Myoblasts, signal relative to DMSO ([1]; 20 uM)","Burkin Assay in Myoblasts, signal relative to DMSO ([1]; 40 uM)","Burkin Assay in Myotubes, α7 integrin LacZ reporter signal relative to DMSO ([2]; 0.5 uM)","Burkin Assay in Myotubes, α7 integrin LacZ reporter signal relative to DMSO ([2]; 1 uM)","Burkin Assay in Myotubes, α7 integrin LacZ reporter signal relative to DMSO ([2]; 5 uM)","Burkin Assay in Myotubes, α7 integrin LacZ reporter signal relative to DMSO ([2]; 10 uM)","Burkin Assay in Myotubes, α7 integrin LacZ reporter signal relative to DMSO ([2]; 20 uM)","Burkin Assay in Myotubes, α7 integrin LacZ reporter signal relative to DMSO ([2]; 40 uM)","CMV-LACZ in Myotubes, signal relative to DMSO ([3]; 5 uM)","CMV-LACZ in Myotubes, signal relative to DMSO ([3]; 10 uM)","CMV-LACZ in Myotubes, signal relative to DMSO ([3]; 20 uM)","CMV-LACZ in Myotubes, signal relative to DMSO ([3]; 40 uM)",fold induction at 0.5 µM ([1]; 0.5 uM),fold induction at 1 µM ([1]; 1 uM),fold induction at 5 µM ([1]; 5 uM),fold induction at 10 µM ([1]; 10 uM),further results
Cc1ccc(S(=O)(=O)NC(C)C(=O)NC(C)c2cccs2)cc1 (stereo not shown) [MLS001221867-01],1.001,1.024,0.9275,0.922,0.9616,0.8943,0.9728,0.9422,0.9593,0.9374,1.02,0.9915,0.9954,0.9834,1.0515,1.0745,,,,,
COc1cc(C)c(NC(=O)COc2ccc3c(c2)OCO3)cc1C [MLS001223425-01],,,,,,,,,,,,,,,,,1.06,1.08,1.06,1.15,"fold induction at 20 µM ([1]; 20 uM): 1.22; fold induction at 40 µM ([1]; 40 uM): 1.13; fold induction at 0.5 µM ([2]; 0.5 uM): 1.08; fold induction at 1 µM ([2]; 1 uM): 1.22; fold induction at 5 µM ([2]; 5 uM): 0.914; fold induction at 10 µM ([2]; 10 uM): 1.38; fold induction at 20 µM ([2]; 20 uM): 1.14; fold induction at 40 µM ([2]; 40 uM): 1.18; fold induction at 5 µM ([3]; C2C12, read-out: CMV-LACZ in Myotubes, signal relative to DMSO, 5 uM): 0.956; fold induction at 10 µM ([3]; C2C12, read-out: CMV-LACZ in Myotubes, signal relative to DMSO, 10 uM): 1.04; fold induction at 20 µM ([3]; C2C12, read-out: CMV-LACZ in Myotubes, signal relative to DMSO, 20 uM): 0.979; fold induction at 40 µM ([3]; C2C12, read-out: CMV-LACZ in Myotubes, signal relative to DMSO, 40 uM): 1.01"
O=c1nc(C2CCN(S(=O)(=O)c3ccc4c(c3)OCCO4)CC2)nc2n(Cc3c(F)cccc3Cl)[nH]nc1-2 [MLS001223482-01],,,,,,,,,,,,,,,,,1.06,1.09,1.01,1.02,"fold induction at 20 µM ([1]; 20 uM): 1.29; fold induction at 40 µM ([1]; 40 uM): 0.98; fold induction at 0.5 µM ([2]; 0.5 uM): 1.06; fold induction at 1 µM ([2]; 1 uM): 1.15; fold induction at 5 µM ([2]; 5 uM): 1.27; fold induction at 10 µM ([2]; 10 uM): 1.53; fold induction at 20 µM ([2]; 20 uM): 1.13; fold induction at 40 µM ([2]; 40 uM): 0.967; fold induction at 5 µM ([3]; 5 uM, read-out: CMV-LACZ in Myotubes, signal relative to DMSO): 0.907; fold induction at 10 µM ([3]; 10 uM, read-out: CMV-LACZ in Myotubes, signal relative to DMSO): 0.793; fold induction at 20 µM ([3]; 20 uM, read-out: CMV-LACZ in Myotubes, signal relative to DMSO): 0.858; fold induction at 40 µM ([3]; 40 uM, read-out: CMV-LACZ in Myotubes, signal relative to DMSO): 0.809"
CC(C)(C)n1cnc2cc(NC(=O)c3ccco3)ccc21 [MLS001223567-01],1.044,1.082,0.9608,0.9203,0.8579,0.864,0.9533,0.9978,0.8636,0.924,0.9991,0.9931,1.002,0.8931,1.241,1.012,,,,,
